Measured values taken from patent US9447087B2, “Galactokinase inhibitors for the treatment and prevention of associated diseases and disorders” (UNIVERSITY OF UTAH RESEARCH FOUNDATION, priority 2011, dated 2016).
≈ marks a conversion by molar mass, not a printed value.

Target: GALK (Homo sapiens (Human), UniProt P51570)
Assay: primary qHTS assay for inhibitors of GALK (KinaseGlo ATP depletion)
Format: biochemical
Settings: 5 nM GALK, 35 μM ATP, 1 hr incubation
Experimental: Assay details and protocol: The primary assay monitored ATP depletion using Promega's KinaseGlo™ technology, where ATP levels are measured through luminescence generated from firefly luciferase, a bioluminescent ATP-dependent enzymes. […] This was used as the positive control for the assay. […]

Chain of GALK (P51570 whole entry): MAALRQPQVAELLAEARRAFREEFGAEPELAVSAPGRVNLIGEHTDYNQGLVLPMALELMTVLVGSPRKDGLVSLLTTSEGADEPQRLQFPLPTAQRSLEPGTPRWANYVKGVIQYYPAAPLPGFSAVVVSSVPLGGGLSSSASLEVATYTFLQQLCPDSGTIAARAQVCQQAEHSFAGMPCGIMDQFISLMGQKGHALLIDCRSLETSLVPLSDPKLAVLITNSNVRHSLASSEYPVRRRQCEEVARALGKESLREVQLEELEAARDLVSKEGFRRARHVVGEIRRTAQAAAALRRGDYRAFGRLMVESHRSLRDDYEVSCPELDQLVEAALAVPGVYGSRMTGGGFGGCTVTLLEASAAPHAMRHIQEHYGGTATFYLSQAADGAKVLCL

IC50 [µM]	SMILES
16.8	O=C1CCCC2=C1C1(CCC1)N=C(Nc1nc3ccccc3o1)N2 [Compound 3]
6.68	CC1(C)CC(=O)C2=C(C1)NC(Nc1nc3ccccc3o1)=NC21CCCC1 [Compound 8]
13.3	O=C1CCC2=C1C1(CCCC1)N=C(Nc1nc3ccccc3o1)N2 [Compound 10]
6.68	O=C1CCCC2=C1C1(CCCC1)N=C(Nc1nc3cc(Cl)ccc3o1)N2 [Compound 20]
5.95	Cc1ccc2oc(NC3=NC4(CCCC4)C4=C(CCCC4=O)N3)nc2c1 [Compound 26]
7.49	O=C1CCCC2=C1C1(CCCC1)N=C(Nc1nc3cc(Br)ccc3o1)N2 [Compound 27]
21.1	Cc1ccc2nc(NC3=NC4(CCCC4)C4=C(CCCC4=O)N3)oc2c1 [Compound 28]
37.5	O=C1CCCC2=C1C1(CCCC1)N=C(Nc1nc3cc4ccccc4cc3o1)N2 [Compound 33]
74.9	Cn1c(NC2=NC3(CCCC3)C3=C(CCCC3=O)N2)nc2ccccc21 [Compound 35]

The remaining lines, values behind:

SMILES	IC50 [µM]
O=C1CC(c2ccccc2)CC2=C1C1(CCCCC1)N=C(Nc1nc3ccccc3o1)N2 (stereo not shown) [Compound 6]	42.1
CC1=C(C(=O)Nc2nc3ccccc3s2)C(c2nn(C)cc2Cl)N=C(Nc2nc3ccccc3o2)N1 (stereo not shown) [Compound 98]	9.19
CC1=C(C(=O)Nc2nnc(-c3ccccc3)s2)C(c2nn(C)cc2Cl)N=C(Nc2nc3ccccc3o2)N1 (stereo not shown) [Compound 100]	3.66
CC1=C(C(=O)NC2CC2)C(c2nn(C)cc2Cl)N=C(Nc2nc3ccccc3o2)N1 (stereo not shown) [Compound 101]	18.3
CC1=C(C(=O)Nc2nncs2)C(c2nn(C)cc2Cl)N=C(Nc2nc3ccccc3o2)N1 (stereo not shown) [Compound 102]	5.17
CNC(=O)C1=C(C)NC(Nc2nc3ccccc3o2)=NC1c1nn(C)cc1Cl (stereo not shown) [Compound 105]	16.3
CC1=C(C(=O)Nc2nc3ccccc3s2)C(c2n[nH]cc2Cl)N=C(Nc2nc3ccccc3o2)N1 (stereo not shown) [Compound 107]	11.6
CC1=C(C(=O)Nc2nnc(-c3ccccc3)s2)C(c2n[nH]cc2Cl)N=C(Nc2nc3ccccc3o2)N1 (stereo not shown) [Compound 108]	5.17
CNC(=O)C1=C(C)NC(Nc2nc3ccccc3o2)=NC1c1n[nH]cc1Cl (stereo not shown) [Compound 109]	18.3
CC1=C(C(=O)NC2CC2)C(c2n[nH]cc2Cl)N=C(Nc2nc3ccccc3o2)N1 (stereo not shown) [Compound 110]	20.6
CNC(=O)C1=C(C)NC(Nc2nc3ccccc3o2)=NC12CCCC2 [Compound 111]	20.6
CC1=C(C(=O)Nc2ccon2)C(c2nn(C)cc2Cl)N=C(Nc2nc3ccccc3o2)N1 (stereo not shown) [Compound 112]	9.19

Target: CDP-ME kinase (Escherichia coli (strain K12), UniProt P62615)
Sequence (P62615 whole entry, looked up): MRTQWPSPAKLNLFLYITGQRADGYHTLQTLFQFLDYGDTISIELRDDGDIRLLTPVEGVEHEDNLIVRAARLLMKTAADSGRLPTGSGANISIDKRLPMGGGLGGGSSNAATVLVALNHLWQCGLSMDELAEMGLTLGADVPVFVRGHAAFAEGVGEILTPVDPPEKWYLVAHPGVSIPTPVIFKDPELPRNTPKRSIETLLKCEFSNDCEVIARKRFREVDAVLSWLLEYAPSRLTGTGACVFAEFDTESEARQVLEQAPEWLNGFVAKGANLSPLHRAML
Assay: selectivity against CDP-ME kinase (bioluminescent Kinase Glo ATP depletion, PubChem ID 2506)
Format: biochemical
Settings: up to 57 μM
Experimental: The selectivity for these analogs against CDP-ME kinase, another member of the GHMP kinase family, was performed using a bioluminescent Kinase Glo™ assay that detects ATP depletion after kinase reaction (PubChem ID 2506). […] All analogs were also tested for cytotoxicity using Promega CellTiter Glo on HEK293 cells that were treated with compounds and analyzed after 48 hours. […] In addition, the ability of these compounds to undergo redox recycling, which may lead to false positive results, was also evaluated using an endpoint colorimetric assay; this assay detects the presence of H2O2 in the kinase reaction buffer (PubChem ID 2502).

SMILES	activity against CDP-ME kinase
O=C1CCCC2=C1C1(CCCC1)N=C(Nc1nc3ccccc3o1)N2 [NCGC00187642]	no activity

System: HEK293 cells
Assay: cytotoxicity, Promega CellTiter Glo on HEK293 cells (PubChem ID 2547)
Format: cell-based
Settings: analyzed after 48 hours
Experimental: The selectivity for these analogs against CDP-ME kinase, another member of the GHMP kinase family, was performed using a bioluminescent Kinase Glo™ assay that detects ATP depletion after kinase reaction (PubChem ID 2506). […] All analogs were also tested for cytotoxicity using Promega CellTiter Glo on HEK293 cells that were treated with compounds and analyzed after 48 hours.

SMILES	cytotoxic effect on HEK293 cells
O=C1CCCC2=C1C1(CCC1)N=C(Nc1nc3ccccc3o1)N2 [Compound 3]	no cytotoxic effect
O=C1CCCC2=C1C1(CCCC1)N=C(Nc1nc3ccccc3o1)N2 [Compound 4]	no cytotoxic effect
O=C1CC(c2ccccc2)CC2=C1C1(CCCCC1)N=C(Nc1nc3ccccc3o1)N2 (stereo not shown) [Compound 6]	no cytotoxic effect
CC1(C)CC(=O)C2=C(C1)NC(Nc1nc3ccccc3o1)=NC21CCCC1 [Compound 8]	no cytotoxic effect
O=C1CCC2=C1C1(CCCC1)N=C(Nc1nc3ccccc3o1)N2 [Compound 10]	no cytotoxic effect
O=C1CCCC2=C1C1(CCCC1)N=C(Nc1nc3cc(Cl)ccc3o1)N2 [Compound 20]	no cytotoxic effect
Cc1ccc2oc(NC3=NC4(CCCC4)C4=C(CCCC4=O)N3)nc2c1 [Compound 26]	no cytotoxic effect
O=C1CCCC2=C1C1(CCCC1)N=C(Nc1nc3cc(Br)ccc3o1)N2 [Compound 27]	no cytotoxic effect
Cc1ccc2nc(NC3=NC4(CCCC4)C4=C(CCCC4=O)N3)oc2c1 [Compound 28]	no cytotoxic effect
O=C1CCCC2=C1C1(CCCC1)N=C(Nc1nc3cc4ccccc4cc3o1)N2 [Compound 33]	no cytotoxic effect
Cn1c(NC2=NC3(CCCC3)C3=C(CCCC3=O)N2)nc2ccccc21 [Compound 35]	no cytotoxic effect

System: not listed separately
Assay: Solubility in PBS
Format: physicochemical
Settings: aqueous buffer, pH 7.4, 23° C.

SMILES	solubility [µg/mL]
O=C1CCCC2=C1C1(CCCC1)N=C(Nc1nc3ccccc3o1)N2 [NCGC00187642]	2.3 (≈ 6.84 µM)
